From US8436011B2, “Pyridinopyridinone derivatives, preparation thereof and therapeutic use thereof” (Sanofi, priority 2008, dated 2013) come the findings set out here.

In series [1] the target is T1, FLT3 receptor (MV4-11 cell line bearing an FLT3ITD mutant) (Homo sapiens, UniProt P36888, INS600HVDFREYEYD).
T1 construct: MV4-11 cell line, which line is established from a leukaemia of constitutively active AML type bearing an FLT3ITD mutant; endogenous in cells; host or cells: MV4-11
T1 sequence (P36888 with tags, fused parts or gaps INS600HVDFREYEYD): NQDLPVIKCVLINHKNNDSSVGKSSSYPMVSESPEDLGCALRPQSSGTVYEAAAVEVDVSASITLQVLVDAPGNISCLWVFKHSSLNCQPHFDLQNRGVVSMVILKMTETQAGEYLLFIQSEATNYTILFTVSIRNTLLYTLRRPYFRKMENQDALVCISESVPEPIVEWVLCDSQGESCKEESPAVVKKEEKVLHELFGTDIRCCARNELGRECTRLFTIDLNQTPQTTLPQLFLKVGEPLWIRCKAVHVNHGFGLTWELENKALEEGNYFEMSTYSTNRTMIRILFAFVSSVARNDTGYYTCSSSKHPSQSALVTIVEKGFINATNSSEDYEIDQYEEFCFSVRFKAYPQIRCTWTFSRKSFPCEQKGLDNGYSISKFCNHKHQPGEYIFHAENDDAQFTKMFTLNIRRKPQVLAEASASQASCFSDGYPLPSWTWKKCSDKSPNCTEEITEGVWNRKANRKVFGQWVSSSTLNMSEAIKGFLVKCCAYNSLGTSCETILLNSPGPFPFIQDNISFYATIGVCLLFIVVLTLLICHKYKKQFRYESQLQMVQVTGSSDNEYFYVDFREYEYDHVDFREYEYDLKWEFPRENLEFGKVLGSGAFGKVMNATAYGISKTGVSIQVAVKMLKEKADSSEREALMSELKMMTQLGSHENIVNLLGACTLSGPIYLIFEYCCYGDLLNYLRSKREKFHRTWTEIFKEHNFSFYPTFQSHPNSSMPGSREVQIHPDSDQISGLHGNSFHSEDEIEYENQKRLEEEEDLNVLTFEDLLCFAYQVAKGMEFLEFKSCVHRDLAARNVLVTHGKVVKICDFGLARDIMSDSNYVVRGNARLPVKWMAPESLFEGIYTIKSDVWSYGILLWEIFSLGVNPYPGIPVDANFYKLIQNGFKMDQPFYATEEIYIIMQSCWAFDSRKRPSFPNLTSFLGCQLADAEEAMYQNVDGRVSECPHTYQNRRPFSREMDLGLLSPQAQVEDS
Description: Inhibition of FLT3 receptor tyrosine kinase activity: proliferation of MV4-11 cells (CellTiter-Glo, 72 h). Format: cell-based. The settings on record: 72 hours incubation, read-out: IC50 (concentration that inhibits 50% of the proliferation of the MV4-11 cells). As for the experimental part: Measurement of Inhibition of the Tyrosine Kinase Activity of the FLT3 Receptor
The inhibitory effect of the compounds according to the invention towards the tyrosine kinase activity of the FLT3 receptor was evaluated on an MV4-11 cell line, which line is established from a leukaemia of constitutively active AML type bearing an FLT3ITD mutant. The inhibitory activity is correlated to the inhibition of cell growth, according to the protocols described by Spiekermann, K. et al., Blood, 2003, 101, (4) 1494-1504 and O'Farrell, A.-M. et al., Blood, 2003, 101, (9) 3597-3605.
(§1) MV4-11 cells are washed with PBS buffer and inoculated in 96-well plates, at a density of 1×10^5 cells/ml (100 μL per well), in RPMI 1640 containing 10% FCS, in the presence or absence of the test compounds. After incubation for 72 hours, the viable cells are quantified by measuring the cellular ATP by means of the CellTiter-Glo® kit (Promega, Cat G7571). The cells are treated according to the instructions given by the kit manufacturer, and the luminescence is measured using a Luminoskan (Ascent, Labsystem) with the following parameters: measurement: single; integration time: 1000 ms, lag time: 5 s.
The inhibitory activity with respect to the FLT3 receptor is given by the concentration that inhibits 50% of the proliferation of the MV4-11 cells.

Series [2] deals with T2, fusion protein Tel/PDGF-Rβ (BaF3 Tel/PDGF cells) (Homo sapiens, UniProt P09619).
T2 construct: the transmembrane and intracellular part of the PDGF-Rβ receptor; N-terminal part of the Tel transcription factor (ETV6); expressed in transfected cells; host or cells: murine haematopoietic cell line BaF/3; the other entry of the earlier key: ETV6 (P41212, Transcription factor ETV6)
Nature of the series: Inhibition of PDGF-Rβ tyrosine kinase activity: proliferation of BaF3 Tel/PDGF cells (CellTiter-Glo, 72 h). Format: cell-based, murine. The settings on record: 72 hours incubation, read-out: IC50 (concentration that inhibits 50% of the proliferation of the BaF3 Tel/PDGF cells). As for the experimental part:
Measurement of Inhibition of the Tyrosine Kinase Activity of the PDGF Beta (PDGF-Rβ) (Baf-3 tel/PDGFIRβ) Receptor:
This test consists in evaluating the effects of the compounds on the tyrosine kinase activity of the PDGF beta receptor.
The inhibitory effect of the compounds according to the invention towards the tyrosine kinase activity of the PDGF-R receptor was evaluated on the murine haematopoietic cell line BaF/3 transfected with a plasmid coding for the fusion protein Tel/PDGF-Rβ. This fusion protein is found in chronic myelomonocytic myeloid leukaemias (CMML). It comprises the N-terminal part of the Tel transcription factor and the transmembrane and intracellular part of the PDGF-Rβ receptor. This fusion protein is present in dimerized form (presence of an oligomerization domain in the N-terminal part of Tel) and, as a result, leads to constitutive activity of the kinase domain of PDGF-Rβ. This line BaF3 Tel/PDGF has been described in the literature several times and especially, in detailed manner, in the article by M. Carroll et al., PNAS, 1996, 93, 14845-14850.
as §1, with “The BaF3 Tel/PDGF” for “MV4-11”, “phosphate” for “PBS”, “5×10^4” for “1×10^5”, “[…]” for “μL”
It is thus seen that the compounds according to the invention have inhibitory activity on the tyrosine kinase activity of PDGF-Rβ. This activity is given by the concentration that inhibits 50% of the proliferation of the BaF3 Tel/PDGF cells (IC50).

Series [3] deals with fusion protein FIP1L1-PDGF-Rα (EOL-1 cell line) (Homo sapiens, UniProt P16234). Description: Inhibition of PDGF alpha receptor tyrosine kinase activity: proliferation of EOL-1 cells (CellTiter-Glo, 72 h). The note with it: 72 hours incubation, read-out: IC50 (concentration that inhibits 50% of the proliferation of the EOL-1 cells). Format: cell-based. As for the experimental part: Measurement of Inhibition of the Tyrosine Kinase Activity of the PDGF Alpha Receptor: The inhibitory effect of the compounds according to the invention towards the tyrosine kinase activity of the PDGF alpha receptor was evaluated on the EOL-1 cell line, which line is established from a leukaemia of constitutively active chronic eosinophilic leukaemia (CEL) type. The EOL-1 line has been described as expressing the fusion protein FIP1L1-PDGF-Rα and is sensitive to kinase inhibitors in proliferation tests (Cools J. et al., Blood 2004, 103, […]). The inhibitory activity is correlated to the inhibition of cell growth. […] After incubation for 72 hours, the viable cells are quantified by measuring the cellular ATP by means of the CellTiter-Glo® kit (Promega, Cat G7571). The cells are treated according to the instructions given by the kit manufacturer, and the luminescence is measured using a Luminoskan (Ascent, Labsystem) with the following parameters: measurement: single; integration time: 1000 ms, lag time: 5 s. It is thus seen that the compounds according to the invention have inhibitory activity on the tyrosine kinase activity of PDGF-Rα. This activity is given by the concentration that inhibits 50% of the proliferation of the EOL-1 cells.
Sequence of fusion protein FIP1L1-PDGF-Rα (EOL-1 cell line) (P16234 579-1089, change not shown): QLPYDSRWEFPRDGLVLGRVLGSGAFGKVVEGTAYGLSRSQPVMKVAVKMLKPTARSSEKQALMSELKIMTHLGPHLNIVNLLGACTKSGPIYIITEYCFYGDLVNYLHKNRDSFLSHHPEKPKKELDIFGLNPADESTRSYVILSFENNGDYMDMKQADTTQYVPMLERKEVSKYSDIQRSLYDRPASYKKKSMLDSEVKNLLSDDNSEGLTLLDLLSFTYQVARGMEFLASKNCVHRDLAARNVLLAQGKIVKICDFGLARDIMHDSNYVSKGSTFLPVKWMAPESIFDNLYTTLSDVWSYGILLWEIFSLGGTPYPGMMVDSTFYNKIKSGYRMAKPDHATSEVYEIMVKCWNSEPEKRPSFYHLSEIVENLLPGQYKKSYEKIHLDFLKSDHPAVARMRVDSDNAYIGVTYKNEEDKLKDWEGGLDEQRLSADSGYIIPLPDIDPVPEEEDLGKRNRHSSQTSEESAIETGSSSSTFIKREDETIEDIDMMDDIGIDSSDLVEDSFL
Sequence of fusion protein FIP1L1-PDGF-Rα (EOL-1 cell line) (Q6UN15 1-339 partner): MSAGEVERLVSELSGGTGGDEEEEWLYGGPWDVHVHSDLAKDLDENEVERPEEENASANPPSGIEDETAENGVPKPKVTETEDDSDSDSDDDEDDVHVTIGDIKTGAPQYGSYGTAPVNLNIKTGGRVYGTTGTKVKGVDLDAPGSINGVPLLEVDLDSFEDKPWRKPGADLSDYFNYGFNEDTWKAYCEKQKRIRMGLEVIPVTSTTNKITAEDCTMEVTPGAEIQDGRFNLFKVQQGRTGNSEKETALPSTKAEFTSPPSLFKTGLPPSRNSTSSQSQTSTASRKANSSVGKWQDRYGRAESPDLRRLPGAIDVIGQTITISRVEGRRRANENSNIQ

T2 sequence (P09619 with tags, fused parts or gaps): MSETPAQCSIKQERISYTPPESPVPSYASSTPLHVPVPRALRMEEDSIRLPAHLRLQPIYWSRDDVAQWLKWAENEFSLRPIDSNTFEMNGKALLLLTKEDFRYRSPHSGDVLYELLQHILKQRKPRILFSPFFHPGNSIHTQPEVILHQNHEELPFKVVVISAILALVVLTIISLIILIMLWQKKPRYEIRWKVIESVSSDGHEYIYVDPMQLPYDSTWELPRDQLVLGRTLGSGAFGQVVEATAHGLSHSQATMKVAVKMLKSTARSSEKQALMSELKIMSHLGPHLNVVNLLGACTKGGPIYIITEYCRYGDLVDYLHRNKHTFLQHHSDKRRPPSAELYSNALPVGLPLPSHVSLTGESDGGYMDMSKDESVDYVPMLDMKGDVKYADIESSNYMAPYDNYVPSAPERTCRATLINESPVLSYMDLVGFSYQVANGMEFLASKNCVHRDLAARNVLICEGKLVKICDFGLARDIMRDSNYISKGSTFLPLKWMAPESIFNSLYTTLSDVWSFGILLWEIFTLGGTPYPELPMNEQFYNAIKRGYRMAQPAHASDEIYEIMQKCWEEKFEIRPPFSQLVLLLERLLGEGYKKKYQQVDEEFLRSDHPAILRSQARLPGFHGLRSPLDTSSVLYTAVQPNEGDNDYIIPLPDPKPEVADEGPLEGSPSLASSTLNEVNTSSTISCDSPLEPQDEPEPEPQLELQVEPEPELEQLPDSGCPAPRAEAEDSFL

`CCn1c(N)c(C(=O)NC)c(=O)c2ccc(-c3ccc(CC(=O)Nc4nccs4)cc3)nc21` [compound 35, 2-amino-1-ethyl-N-methyl-4-oxo-7-{4-[2-oxo-2-(1,3-thiazol-2-ylamino)-ethyl]phenyl}-1,4-dihydro-1,8-naphthyridine-3-carboxamide]: the melting point was 303 °C. For the same compound, the IC50 in series [1] worked out at 83 nM. The IC50 in series [2] was 3.7 nM. The IC50 in series [3] was determined as 0.8 nM.
